Source: patent US20240217952A1, “TREATMENT OF GRAFT-VERSUS-HOST DISEASE WITH INHIBITORS OF BET FAMILY BDII BROMODOMAIN” (POSEIDON INNOVATION 1, INC., priority 2022, published 2024)

Assays:
[1] = test system: MCP-1 secretion from LPS-stimulated human PBMCs; assay: PBMC MCP-1 HTRF Assay; assay type: cell-based; settings: FIG. 2
Method: The cryopreserved PBMC cells were thawed in a 37° C. water bath immediately after taking out from liquid nitrogen storage. A sterile pipette was used to transfer the content to sterile […] centrifuge tube containing […] of complete growth medium (Gibico 1640) and centrifuge at 300×g for 10 min. Supernatant was discarded, and cell pellet was resuspended in 10 mL of complete growth media in a sterile 15 mL tube. The cells were rested for 1 h at 37° C. (1×10^6 cells/mL). The cells were spinned down at 300×g for 10 minutes after 1 h. Supernatant was discard, and cell pellet was resuspended in complete growth medium, the cells number and viability were measured by AO/PI staining. In a 384-well white plate, PBMCs at 25k cells/well (15 μl per well) were seeded with Gibico 1640 medium. The compound stock was serial diluted into 10 mM concentrations by 3-fold dilution. […]
For MCP-1 HTRF, 2.5 μl/well MCP-1 donor antibody and […] MCP-1 acceptor antibody were added into 384 well plate, following by centrifuging at 190×g for 1 min and incubating at room temperature for 2 h. The plate was read on the Envision.
The cryopreserved PBMC cells were thawed in a 37° C. water bath immediately after taking out from liquid nitrogen storage. […] Supernatant was discard, and cell pellet was resuspended in complete growth medium, the cells number and viability were measured by AO/PI staining. […]

[2] = test system: IL-17A, IL-17F and IL-21 T-cell dependent cytokine secretion; assay: Th17 Panel in Human PBMCs (anti-CD3 stimulation, Luminex); assay type: cell-based; settings: anti-CD3 coated plates, 48 hours post stimulation, supernatant, FIG. 1
Method: High binding plates were coated with anti-CD3 (Clone UCHT-1, 0.2 ug/well) or its isotype control mIgG1 (0.2 ug/well) and incubated overnight at 4° C. Cryopreserved human PBMCs were seeded into U-bottom 96-well plates (2.4×10^5 cells/well) with 228 ul per well of culture medium (RPMI 1640, 10% HI-FBS, 1% P/S, 2 mM L-glutamine). Cells were incubated at 37° C., 5% CO2 for 1 hour prior to the addition of test compounds. Test compounds were solubilized in DMSO and further diluted to 20× with cell culture medium. Test compounds were added to the PBMCs in volumes of 12 ul in triplicate and incubated at 1 hour at 37° C., 5% CO2.
After the 1 hour incubation, 200 ul of cells ([…]) treated with test compounds or controls were transferred to the prepared anti-CD3 coated plates and incubated at 48 hours at 37° C., 5% CO2. Consequently, the final concentrations of assay controls were 1 ug/mL anti-CD3 (agonist) or 1 ug/mL mIgG1 isotype control, and 0.1% DMSO (vehicle control). At the end of the incubation period, plates were centrifuged at 200×g for 10 minutes. Cell culture supernatants were collected and stored at −80° C. until needed for analysis. Cytokine levels in each sample were determine using Luminex methodology per the manufacturer's protocol using the Human Th17 Magnetic Bead Panel from Milipore Sigma (HTH17MAG-14K).
Human PBMCs were treated with compound I-1 (Example 1) or vehicle control and then subjected to T cell activation mediated by anti-CD3 coated plates. 48 hours-post stimulation, IL-17A, IL-17F and IL-21 supernatant levels were quantified.

[3] = test system: imiquimod-induced psoriasis; assay: IMQ induced psoriasis mouse model; assay type: in vivo
Method: Except for the control group, all other groups received a daily topical dose of 60 mg of 5% commercially available IMQ cream on the shaved back for 7 consecutive days. The same amount of Vaseline was applied to the same areas of the animals in the negative control group.
Vehicle and DF-6129 were dosed daily (po) for 8 days, from Day −1 to Day 7. Dosing time: 1 hour prior to IMQ application.
The Psoriasis Area and Severity Index (PASI) scoring system was used to evaluate the severity of skin inflammation of the mouse model. Erythema, scaling, and skin thickness was scored independently from 0-4 as (daily scoring) as below:
Animals were euthanized 4 h post last dosing on day 7 (3 h after applying with imiquimod cream). Whole Blood was collected via cardiac puncture from all group animals. Serum samples were separated by centrifugation at 4° C. at 8000 g for 5 minutes, total 70 samples. All serum samples were stored at −80° C. for IL-17 analysis.
Animals were euthanized 4 h post last dosing on day 7 (3 h after applying with imiquimod cream) and back skin was be collected. The skin tissues were divided into two parts. One half was flash frozen and stored at −80° C. for PCR analysis (IL-17A, IL-17F, IL-22 and IL-23), the other half was fixed in 10% formalin for HE staining and scoring.
All statistical analysis were conducted, and the level of significance was set at P<0.05. The group means and standard deviation were calculated for all measurement parameters as study designed. One-way ANOVA comparisons among the groups was performed with software SPSS 16.0.

[4] = test system: Graft vs. Host Disease (GvHD); assay: GvHD in irradiated female BALB/c mice engrafted with WBCs from female C57BL/6 mice; assay type: in vivo, mouse
[5] = test system: Graft vs. Host Disease (GvHD); assay: GvHD, combination with adoptive transfer of expanded Tregs; assay type: in vivo, mouse; settings: in combination with adoptive transfer of expanded Tregs; e.g. 3 mg/kg
Description: It has been shown that BET inhibitors can be combined with Treg expansion therapy for treatment of diseases involving inflammatory response. Lethally irradiated (8.5 Gy) BALB/c mice received 5.5×10^6 TCD B6-CD45.1 BM cells and spleen cells from expanded (TrED) or unexpanded (TrUD) B6-FoxP3RFP donor mice adjusted to contain either […] or 1×10^6 total T cells (Copsel et al. 2019).

[6] = test system: Graft vs. Host Disease (GvHD); assay: GvHD, combination with CTLA4-Ig/Abatacept; assay type: in vivo, mouse; settings: in combination with CTLA4-Ig; e.g. 3 mg/kg
Description: It has been shown that in vivo infusion of recombinant, soluble CTLA4 fused with Ig heavy chains, as a surrogate ligand used to block CD28/CTLA4 T-cell costimulation, could prevent efficient T-cell activation and thereby reduce graft-versus-host disease (GVHD). Lethally irradiated B10.BR recipients of major histocompatibility complex disparate C57BL/6 donor grafts received intraperitoneal injections CTLA4-Ig in various doses and schedules beginning on day −1 or day 0 of bone marrow transplantation (BMT) (see Blazer et al. 1994).

cGVHD = cGVHD models (LP/J→C57BL/6 sclerodermatous; C57BL/6→B10.BR); assay type: in vivo, mouse; settings: e.g. 3 mg/kg
Method: Compound I-2 is dosed at various doses, e.g., 3 mg/kg, and decreases incidence and/or […] onset of Graft vs. Host Disease (GvHD) in the LP/J-C57BL/6 model of sclerodermatous cGVHD and/or the C57BL/6→B10.BR cGVHD model that develops multiorgan system disease including bronchiolar obliterans (BO).

GVHD = settings: allogeneic animals compared with allogeneic control recipients; FIG. 3; cited from earlier work
acute GVHD = settings: oral gavage three times weekly, versus vehicle; FIG. 4; cited from earlier work

In the case of `Cn1ccn(-c2ccc(-c3cc(F)cc(-c4cccc(N5CCN(C(C)(C)C)CC5)c4)c3O)cc2Cl)c1=O` [Compound I-1, 1-(3″-(4-(tert-butyl)piperazin-1-yl)-3-chloro-5′-fluoro-2′-hydroxy-[1,1′:3′,1″- terphenyl]-4-yl)-3-methyl-1,3-dihydro-2H-imidazol-2-one], the “MCP secretion from LPS-stimulated human PBMCs” value [1] is reported as “inhibited”, the “IL21 T-cell dependent cytokine secretion” value [2] is reported as “inhibited” and the “IL-17A T-cell dependent cytokine secretion” value [2] is reported as “inhibited”. The “IL-17F T-cell dependent cytokine secretion” value [2] was “inhibited”, the “mRNA levels of IL-17A from the back skin” value ([3]; 10 mg/kg, compared with vehicle treatment alone, FIG. 7A) was “significantly reduced” and the “mRNA levels of IL-22 from the back skin” value ([3]; 10 mg/kg, compared with vehicle treatment alone, FIG. 7B) was “significantly reduced”. For the same molecule, the “mRNA levels of IL-23 from the back skin” value ([3]; 10 mg/kg, compared with vehicle treatment alone, FIG. 7C) was “significantly reduced”, the “serum IL-17 levels” value ([3]; compared to vehicle treatment alone, ELISA, day 7, FIG. 6) was “significantly reduced” and the “total psoriasis (PASI) score” value ([3]; daily dosing po, compared to vehicle treatment, FIG. 5A) was “significantly reduced”. The “erythema (PASI)” value ([3]; daily dosing po, compared to vehicle treatment, FIG. 5B) was “significant decreases”, the “scaling (PASI)” value ([3]; daily dosing po, compared to vehicle treatment, FIG. 5C) was “significant decreases” and the “skin thickening (PASI)” value ([3]; daily dosing po, compared to vehicle treatment, FIG. 5D) was “significant decreases”.
In the case of `Cc1cc(-c2ccc(-n3ccn(C)c3=O)c(Cl)c2)c(O)c(-c2cccc(N3CCN(C(C)(C)C)CC3)c2)n1` [Compound I-2, 1-(4-(2-(3-(4-(tert-butyl)piperazin-1-yl)phenyl)-3-hydroxy-6-methylpyridin-4-yl)-2-chlorophenyl)-3-methyl-1,3-dihydro-2H-imidazol-2-one], the “incidence and/or onset of GvHD” value ([4]; in combination with Ruxolitinib, compared to Ruxolitinib treatment alone, e.g. 3 mg/kg) is reported as “decreases incidence and/or delays of onset”, the “incidence and/or onset of GvHD” value ([4]; monotherapy, various doses e.g. 3 mg/kg) is reported as “decreases incidence and/or delays onset” and the “incidence and/or onset of GvHD” value [5] is reported as “decreases incidence and/or delays of onset”. The “incidence and/or onset of GvHD” value [6] was “decreases incidence and/or delays onset”, the “incidence and/or onset of GvHD (cGVHD)” value (cGVHD; in combination with Ruxolitinib) was “decreases incidence and/or delays onset” and the “incidence and/or onset of GvHD (cGVHD)” value (cGVHD; monotherapy) was “decreases incidence and/or delayes onset”.
In the case of `COc1cc2c(cc1-c1c(C)noc1C)ncc1[nH]c(=O)n([C@H](C)c3ccccn3)c12` [I-BET151], the “GVHD severity (clinical score)” value (GVHD) is given as “significantly reduced” and the survival rates (GVHD) is given as “improved”.
In the case of `Cc1noc(C)c1-c1cnc2c(-c3ccc(C(=O)O)cc3)cn([C@@H](C)c3ccccn3)c2c1` [PLX51107], the survival (acute GVHD) is listed as “significantly improved”.
